The source of these data is ChEMBL document CHEMBL1201862, “PubChem BioAssay data set” (2004).

Test systems include MOLT-4; NCI-H226; UACC-257; NCI-H522; OVCAR-4; OVCAR-8; NCI-H23; A549; NCI/ADR-RES; SNB-75; MDA-MB-231; MDA-MB-435; LOX IMVI; UACC-62; SW-620; SK-MEL-28; A498; HOP-62; RPMI-8226.
Common to all, as to test: NCI anticancer screen, dose series, 48 h

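These data come from cells grown in 96-well plates and exposed to compound for 48 hours at five concentrations. Here, GI50 denotes the concentration required for 50% inhibition of growth.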 Calls of active or inactive are those of the source. No stated cut-off is given here; in the data, active = GI50 up to about 1.1 µM and inactive = higher. Some results are limits rather than exact numbers.

Regarding `Cc1csc(N/C=C2\C(=O)Oc3ccccc3C2=O)n1`, the GI50 with MOLT-4 was 41 µM (inactive); with NCI-H226 it was 24.2 µM (inactive); in the experiment with UACC-257 it was 45.2 µM (inactive); in the experiment on NCI-H522, 26.4 µM (inactive); in the experiment with OVCAR-4 it was 32.7 µM (inactive); with OVCAR-8 it was 32 µM (inactive). Besides, the GI50 in the experiment on NCI-H23 was 18.2 µM (inactive); with A549 it was 38.7 µM (inactive); in the experiment on NCI/ADR-RES it was 35.7 µM (inactive); in the experiment on SNB-75, 10.4 µM (inactive); in the experiment on MDA-MB-231, 20.2 µM (inactive); in the experiment on MDA-MB-435 it was 24.9 µM (inactive). Besides, the GI50 in the experiment on LOX IMVI was 22.1 µM (inactive); in the experiment with UACC-62 it was 24.6 µM (inactive); in the experiment on SW-620, 33.2 µM (inactive).

On to `CCOC(=O)CC(=O)Nc1c(C(=O)OCC)sc2nc(SC)nc(Nc3ccc(OC)c(OC)c3)c12`, for which the GI50 with SK-MEL-28 is > 100 µM (inactive); in the experiment on NCI-H226, 75.2 µM (inactive); in the experiment with A498, 28.9 µM (inactive); with UACC-257 it was > 100 µM (inactive); in the experiment on NCI-H522, 13.6 µM (inactive); in the experiment with OVCAR-4 it was 66.2 µM (inactive). Moreover, the GI50 with OVCAR-8 is 34.4 µM (inactive); in the experiment on NCI-H23, 19.1 µM (inactive); with A549 it was 0.36 µM (active); with NCI/ADR-RES, 8.77 µM (inactive); in the experiment on SNB-75, 1.99 µM (inactive); with MDA-MB-231, 18.5 µM (inactive). The GI50 was > 100 µM (inactive) in the experiment with MDA-MB-435, 39.4 µM (inactive) with LOX IMVI, 24.6 µM (inactive) with UACC-62 and > 100 µM (inactive) in the experiment with SW-620.

As for `Cc1ccc(-c2c(N)nc(NC#N)nc2CCC(=O)Nc2ccccc2[N+](=O)[O-])cc1`, the GI50 in the experiment on SK-MEL-28 is > 100 µM (inactive); with MOLT-4, > 100 µM (inactive); in the experiment on NCI-H226 it was > 100 µM (inactive); in the experiment with A498, > 100 µM (inactive); in the experiment with UACC-257, > 100 µM (inactive); in the experiment on NCI-H522, 85.1 µM (inactive). In addition, the GI50 in the experiment with OVCAR-4, with NCI-H23, in the experiment with A549, with SNB-75, with HOP-62 and in the experiment on LOX IMVI was > 100 µM (inactive) throughout. Further, the GI50 with UACC-62, in the experiment on SW-620 and with RPMI-8226 was > 100 µM (inactive) each time.

Take `COC(=O)C(C(=O)C(=O)Nc1nc2ccc(OC)cc2s1)c1cnc2ccccc2n1` (centres undefined): the GI50 with SK-MEL-28, with MOLT-4, in the experiment with NCI-H226, in the experiment with A498, in the experiment with UACC-257 and in the experiment on NCI-H522 was > 100 µM (inactive) each time. In addition, the GI50 in the experiment on OVCAR-4, with NCI-H23, with A549, with SNB-75, with HOP-62 and with LOX IMVI was > 100 µM (inactive) throughout. Moreover, the GI50 with UACC-62, in the experiment on SW-620 and with RPMI-8226 was > 100 µM (inactive) each time.

For `COC(=O)CNC(=O)C(CSC(=O)OCC1c2ccccc2-c2ccccc21)NC(=O)CCC(NC(=O)OCC1c2ccccc2-c2ccccc21)C(=O)OC` (centres undefined), the GI50 is 38.1 µM (inactive) with SK-MEL-28; 21.2 µM (inactive) in the experiment on MOLT-4; 99.1 µM (inactive) with NCI-H226; 32.5 µM (inactive) in the experiment on UACC-257; 4.65 µM (inactive) in the experiment with NCI-H522; 16.9 µM (inactive) in the experiment on OVCAR-4. Moreover, the GI50 in the experiment with OVCAR-8 was 16.8 µM (inactive); with NCI-H23, 17.5 µM (inactive); in the experiment with A549, 14.5 µM (inactive); in the experiment on NCI/ADR-RES it was 41 µM (inactive); in the experiment on HOP-62, 21.1 µM (inactive); in the experiment with MDA-MB-231, 16.6 µM (inactive). The GI50 in the experiment with MDA-MB-435 was 25.7 µM (inactive); in the experiment with LOX IMVI, 3.27 µM (inactive); in the experiment with SW-620, 55.2 µM (inactive); in the experiment with RPMI-8226, 23.1 µM (inactive).

For `CCOC(=O)C1C(c2ccccc2)=C(c2ccccc2)C(c2ccccc2)=C1c1ccccc1`, the GI50 is 54.1 µM (inactive) in the experiment with SK-MEL-28; 50 µM (inactive) in the experiment on MOLT-4; > 39.2 µM (inactive) in the experiment with NCI-H226; 20 µM (inactive) in the experiment with A498; > 94.6 µM (inactive) in the experiment with UACC-257; 49.8 µM (inactive) in the experiment on NCI-H522. Moreover, the GI50 in the experiment on OVCAR-4 was 18.2 µM (inactive); in the experiment with OVCAR-8 it was 25.7 µM (inactive); in the experiment on NCI-H23 it was 34.2 µM (inactive); in the experiment with A549 it was 33.7 µM (inactive); with SNB-75, 13.2 µM (inactive); in the experiment on HOP-62, 12.6 µM (inactive). The GI50 in the experiment on LOX IMVI is 58.9 µM (inactive); with UACC-62, 19.3 µM (inactive); in the experiment with SW-620 it was 81.5 µM (inactive); in the experiment on RPMI-8226, 19.6 µM (inactive).

Take `COC(=O)C(=O)C(C(=O)C(=O)Nc1ccc(Cl)cc1Cl)c1nc2ccc(Cl)cc2nc1O` (centres undefined): the GI50 in the experiment on SK-MEL-28 was > 100 µM (inactive); in the experiment on MOLT-4, 82.8 µM (inactive); in the experiment on NCI-H226, 49 µM (inactive); in the experiment on UACC-257, > 100 µM (inactive); in the experiment with NCI-H522 it was > 100 µM (inactive); with OVCAR-4, > 100 µM (inactive). For the same molecule, the GI50 in the experiment on OVCAR-8 was > 100 µM (inactive); in the experiment on NCI-H23 it was > 100 µM (inactive); with A549 it was > 100 µM (inactive); in the experiment on NCI/ADR-RES it was > 100 µM (inactive); with SNB-75, 65.2 µM (inactive); in the experiment on HOP-62, > 100 µM (inactive). For the same molecule, the GI50 with MDA-MB-231, in the experiment on MDA-MB-435, in the experiment with LOX IMVI, in the experiment on UACC-62 and with SW-620 was > 100 µM (inactive) in each case.

For the molecule `CN1CCN(CCSC2Cc3cc(Cl)ccc3Sc3ccccc32)CC1` (centres undefined), the GI50 is 1.86 µM (inactive) in the experiment with SK-MEL-28; 2.44 µM (inactive) in the experiment on MOLT-4; 16.9 µM (inactive) with NCI-H226; 6.41 µM (inactive) in the experiment with A498; 1.9 µM (inactive) in the experiment on UACC-257; 5.93 µM (inactive) in the experiment on NCI-H522. Also, the GI50 with OVCAR-4 was 6.81 µM (inactive); in the experiment with OVCAR-8, 7.91 µM (inactive); in the experiment with NCI-H23, 7.89 µM (inactive); in the experiment with A549 it was 6.05 µM (inactive); in the experiment on SNB-75, 5.82 µM (inactive); in the experiment with HOP-62, 12.7 µM (inactive). Moreover, the GI50 with LOX IMVI is 2.28 µM (inactive); in the experiment on UACC-62 it was 1.91 µM (inactive); in the experiment on SW-620 it was 2.81 µM (inactive); with RPMI-8226 it was 2.26 µM (inactive).

In the case of `CCOC(=O)N[C@H]1CCc2cc(O)c(OC)c(OC)c2-c2ccc(SC)c(=O)cc21`, the GI50 in the experiment with SK-MEL-28 is < 0.029 µM (active); in the experiment with MOLT-4, 0.03 µM (active); in the experiment on NCI-H226, 0.266 µM (active); with A498, 0.0208 µM (active); in the experiment with UACC-257, < 0.0491 µM (active); with NCI-H522, 0.0177 µM (active). Also, the GI50 is 8 µM (inactive) with OVCAR-4; 0.0301 µM (active) with OVCAR-8; 0.0157 µM (active) with NCI-H23; 0.0289 µM (active) with A549; < 0.01 µM (active) with SNB-75; 0.0386 µM (active) in the experiment with HOP-62. Also, the GI50 was 0.0234 µM (active) in the experiment on LOX IMVI, < 0.0144 µM (active) in the experiment with UACC-62, < 0.0137 µM (active) in the experiment with SW-620 and < 0.0135 µM (active) in the experiment on RPMI-8226.

In the case of `O=C(NCCN1CCOCC1)c1ccc(I)cc1`, the GI50 with SK-MEL-28, in the experiment with MOLT-4, in the experiment on NCI-H226, with A498, in the experiment on OVCAR-4 and in the experiment on OVCAR-8 was > 100 µM (inactive) throughout. Further, the GI50 in the experiment on NCI-H23, with A549, in the experiment on NCI/ADR-RES, in the experiment on SNB-75, in the experiment on LOX IMVI and with UACC-62 was > 100 µM (inactive) in each case. Further, the GI50 in the experiment with SW-620 and in the experiment with RPMI-8226 was > 100 µM (inactive) each time.

In the case of `CN(C)c1snc2c1c(=O)n(C)c(=O)n2C`, the GI50 in the experiment on SK-MEL-28 was > 100 µM (inactive); in the experiment on MOLT-4, > 100 µM (inactive); with NCI-H226 it was 65.2 µM (inactive); with A498 it was > 100 µM (inactive); in the experiment on UACC-257, > 100 µM (inactive); in the experiment with NCI-H522, > 100 µM (inactive). The GI50 in the experiment with OVCAR-4 was > 100 µM (inactive); in the experiment with OVCAR-8, > 100 µM (inactive); with NCI-H23, > 100 µM (inactive); with A549, > 100 µM (inactive); in the experiment on SNB-75, 35.7 µM (inactive); in the experiment with HOP-62 it was > 100 µM (inactive). The GI50 in the experiment on LOX IMVI, in the experiment with UACC-62, in the experiment on SW-620 and in the experiment with RPMI-8226 was > 100 µM (inactive) throughout.

Take `Cc1c(CN)c(C)c(CN)c(C)c1CN`: the GI50 in the experiment with SK-MEL-28 is > 100 µM (inactive); in the experiment with MOLT-4 it was > 100 µM (inactive); in the experiment on NCI-H226, > 100 µM (inactive); in the experiment on UACC-257, > 100 µM (inactive); in the experiment with NCI-H522, 86.7 µM (inactive); in the experiment with OVCAR-4, > 100 µM (inactive). In addition, the GI50 is > 100 µM (inactive) in the experiment with OVCAR-8; 27 µM (inactive) in the experiment with NCI-H23; > 100 µM (inactive) with A549; > 100 µM (inactive) with NCI/ADR-RES; > 100 µM (inactive) in the experiment with SNB-75; 81.5 µM (inactive) with HOP-62. Also, the GI50 in the experiment on MDA-MB-231, in the experiment with MDA-MB-435, with LOX IMVI, in the experiment on SW-620 and with RPMI-8226 was > 100 µM (inactive) throughout.
